Test results taken from ChEMBL document CHEMBL5260810, “Inhibition of bromodomain-containing protein 9 for the prevention of epigenetically-defined drug resistance” (Bioorg Med Chem Lett, 2017).

What was measured:
A-375 = test: Cytotoxicity against human A-375 cells measured after 8 days; assay type: functional, cell-based; conditions: A-375, 192 h
[1] = Cytotoxicity against human NCI-H2810 cells measured after 8 days; assay type: functional, cell-based; conditions: NCI-H2810, 192 h
HT = test: Cytotoxicity against human HT cells measured after 8 days; assay type: functional, cell-based; conditions: 192 h
[2] = target: T1, Endothelin-1 receptor (Homo sapiens) (UniProt P25101); test: Displacement of [125I]-endothelin-1 from human recombinant ETA receptor at 10 uM after 120 mins by scintillation counting analysis relative to control
T1 sequence (whole entry): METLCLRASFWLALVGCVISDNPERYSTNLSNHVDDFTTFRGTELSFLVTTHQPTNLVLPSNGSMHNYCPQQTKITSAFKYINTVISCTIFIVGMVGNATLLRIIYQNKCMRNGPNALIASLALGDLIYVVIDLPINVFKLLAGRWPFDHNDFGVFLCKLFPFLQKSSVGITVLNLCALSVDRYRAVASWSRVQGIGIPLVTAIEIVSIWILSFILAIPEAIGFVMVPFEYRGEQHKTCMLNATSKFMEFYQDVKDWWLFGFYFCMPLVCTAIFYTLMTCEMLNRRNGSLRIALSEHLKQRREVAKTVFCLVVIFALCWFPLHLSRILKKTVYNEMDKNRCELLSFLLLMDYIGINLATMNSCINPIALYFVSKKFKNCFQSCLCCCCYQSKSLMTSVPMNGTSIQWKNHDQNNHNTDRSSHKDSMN

EB-3 = test: Cytotoxicity against human EB-3 cells measured after 8 days; assay type: functional, cell-based; conditions: EB-3, 192 h
[3] = Cytotoxicity against human VMRC-LCD cells measured after 8 days; assay type: functional, cell-based; conditions: 192 h
WiDr = test: Cytotoxicity against human WiDr cells measured after 8 days; assay type: functional, cell-based; conditions: 192 h
[4] = target: 5-hydroxytryptamine receptor 2B (Homo sapiens) (UniProt P41595); test: Displacement of [125I]+/-DOI from human recombinant 5-HT2B receptor at 10 uM after 60 mins by scintillation counting analysis relative to control
[5] = target: Tyrosine-protein kinase Yes (Homo sapiens) (UniProt P07947); test: Inhibition of Yes (unknown origin) at 1 uM relative to control
[6] = target: D(1A) dopamine receptor (Homo sapiens) (UniProt P21728); test: Displacement of [3H]-SCH 23390 from human recombinant dopamine D1 receptor at 10 uM by scintillation counting 60 mins analysis relative to control
CAL-12T = test: Cytotoxicity against human CAL-12T cells measured after 8 days; assay type: functional, cell-based; conditions: 192 h
[7] = target: Mu-type opioid receptor (Homo sapiens) (UniProt P35372); test: Displacement of [3H]DAMGO from human recombinant mu receptor at 10 uM after 120 mins by scintillation counting analysis relative to control
[8] = Cytotoxicity against human RERF-LC-OK cells measured after 8 days; assay type: functional, cell-based; conditions: 192 h
[9] = Cytotoxicity against human KPL-4 cells measured after 8 days; assay type: functional, cell-based; conditions: KPL4, 192 h
[10] = target: Proto-oncogene tyrosine-protein kinase Src (Homo sapiens) (UniProt P12931); test: Inhibition of Src (unknown origin) at 1 uM relative to control
COLO 320DM = test: Cytotoxicity against human COLO 320DM cells measured after 8 days; assay type: functional, cell-based; conditions: 192 h
NCI-H23 = test: Cytotoxicity against human NCI-H23 cells measured after 8 days; assay type: functional, cell-based; conditions: NCI-H23, 192 h
HCC70 = test: Cytotoxicity against human HCC70 cells measured after 8 days; assay type: functional, cell-based; conditions: HCC70, 192 h
MDA-MB-436 = test: Cytotoxicity against human MDA-MB-436 cells measured after 8 days; assay type: functional, cell-based; conditions: MDA-MB-436, 192 h
Homo sapiens = species: Homo sapiens; test: Binding affinity to GABA-gated chloride channel (unknown origin) at 10 uM by antagonist radioligand-based assay relative to control; design: scale not given: the % may be the effect or the level left; conditions: time 60.0 min
[11] = target: Bromodomain-containing protein 2 (Homo sapiens, UniProt P25440); test: Binding affinity to human partial length BRD2 bromodomain 2 isoform 1 (E348 to D455 residues) expressed in bacterial expression system by BROMOscan assay
[12] = target: Sodium-dependent serotonin transporter (Homo sapiens) (UniProt P31645); test: Displacement of [3H]-imipramine from recombinant human 5-HT transporter at 10 uM after 60 mins by scintillation counting relative to control
Calu-3 = test: Cytotoxicity against human Calu-3 cells measured after 8 days; assay type: functional, cell-based; conditions: Calu-3, 192 h
Caco-2 = test: Cytotoxicity against human Caco-2 cells measured after 8 days; assay type: functional, cell-based; conditions: Caco-2, 192 h
SW948 = test: Cytotoxicity against human SW948 cells measured after 8 days; assay type: functional, cell-based; conditions: SW948, 192 h
SCC-3 = test: Cytotoxicity against human SCC-3 cells measured after 8 days; assay type: functional, cell-based; conditions: SCC-3, 192 h

Chain of Mu-type opioid receptor (Homo sapiens) (P35372 whole entry): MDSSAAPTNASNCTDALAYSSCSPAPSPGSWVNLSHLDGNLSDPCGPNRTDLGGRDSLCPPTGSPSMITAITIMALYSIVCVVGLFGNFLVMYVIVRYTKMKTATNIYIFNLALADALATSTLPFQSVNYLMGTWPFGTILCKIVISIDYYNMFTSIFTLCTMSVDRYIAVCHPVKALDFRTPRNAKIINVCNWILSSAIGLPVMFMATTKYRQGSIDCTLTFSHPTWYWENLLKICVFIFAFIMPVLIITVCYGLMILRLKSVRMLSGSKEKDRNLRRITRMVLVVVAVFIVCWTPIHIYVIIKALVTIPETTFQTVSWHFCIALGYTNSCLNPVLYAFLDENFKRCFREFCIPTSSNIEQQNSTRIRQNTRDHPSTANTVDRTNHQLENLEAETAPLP
Chain of Tyrosine-protein kinase Yes (Homo sapiens) (P07947 2-543 limits assumed): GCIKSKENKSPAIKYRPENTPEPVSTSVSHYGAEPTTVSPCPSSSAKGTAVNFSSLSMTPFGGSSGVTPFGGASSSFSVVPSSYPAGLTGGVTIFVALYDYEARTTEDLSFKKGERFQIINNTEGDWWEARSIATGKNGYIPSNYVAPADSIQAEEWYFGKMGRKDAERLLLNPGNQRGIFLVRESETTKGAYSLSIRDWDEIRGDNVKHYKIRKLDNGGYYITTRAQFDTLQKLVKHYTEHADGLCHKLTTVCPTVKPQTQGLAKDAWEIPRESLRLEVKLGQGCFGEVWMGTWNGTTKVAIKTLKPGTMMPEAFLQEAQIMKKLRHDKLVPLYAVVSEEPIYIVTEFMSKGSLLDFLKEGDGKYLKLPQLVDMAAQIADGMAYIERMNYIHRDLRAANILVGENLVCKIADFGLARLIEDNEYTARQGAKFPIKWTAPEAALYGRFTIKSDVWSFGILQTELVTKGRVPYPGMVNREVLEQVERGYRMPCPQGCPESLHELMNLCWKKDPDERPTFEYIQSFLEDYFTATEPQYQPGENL
Chain of 5-hydroxytryptamine receptor 2B (Homo sapiens) (P41595 whole entry): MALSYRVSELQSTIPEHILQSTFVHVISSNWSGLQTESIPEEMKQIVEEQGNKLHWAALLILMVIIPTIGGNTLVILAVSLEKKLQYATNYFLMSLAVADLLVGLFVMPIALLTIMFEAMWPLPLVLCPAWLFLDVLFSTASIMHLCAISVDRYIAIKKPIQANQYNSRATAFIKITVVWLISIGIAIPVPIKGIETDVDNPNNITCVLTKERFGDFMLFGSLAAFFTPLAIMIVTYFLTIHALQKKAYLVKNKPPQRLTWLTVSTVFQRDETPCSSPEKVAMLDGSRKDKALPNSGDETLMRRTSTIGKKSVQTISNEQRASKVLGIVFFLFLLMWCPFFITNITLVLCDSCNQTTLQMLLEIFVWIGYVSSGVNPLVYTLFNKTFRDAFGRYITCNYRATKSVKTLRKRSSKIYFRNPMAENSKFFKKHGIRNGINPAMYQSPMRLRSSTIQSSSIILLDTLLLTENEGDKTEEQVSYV
Chain of D(1A) dopamine receptor (Homo sapiens) (P21728 whole entry): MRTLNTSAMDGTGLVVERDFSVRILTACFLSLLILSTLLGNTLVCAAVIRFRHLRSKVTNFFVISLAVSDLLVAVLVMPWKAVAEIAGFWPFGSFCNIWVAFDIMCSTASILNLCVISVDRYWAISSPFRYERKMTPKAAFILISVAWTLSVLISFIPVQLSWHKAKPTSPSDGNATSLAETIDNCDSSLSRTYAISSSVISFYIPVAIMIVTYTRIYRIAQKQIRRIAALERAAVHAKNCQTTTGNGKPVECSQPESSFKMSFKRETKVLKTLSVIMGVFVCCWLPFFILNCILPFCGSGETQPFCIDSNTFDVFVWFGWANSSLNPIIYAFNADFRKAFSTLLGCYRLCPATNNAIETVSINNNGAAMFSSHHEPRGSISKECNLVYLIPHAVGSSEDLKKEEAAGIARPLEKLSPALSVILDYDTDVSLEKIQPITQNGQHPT
Chain of Proto-oncogene tyrosine-protein kinase Src (Homo sapiens) (P12931 2-536 limits assumed): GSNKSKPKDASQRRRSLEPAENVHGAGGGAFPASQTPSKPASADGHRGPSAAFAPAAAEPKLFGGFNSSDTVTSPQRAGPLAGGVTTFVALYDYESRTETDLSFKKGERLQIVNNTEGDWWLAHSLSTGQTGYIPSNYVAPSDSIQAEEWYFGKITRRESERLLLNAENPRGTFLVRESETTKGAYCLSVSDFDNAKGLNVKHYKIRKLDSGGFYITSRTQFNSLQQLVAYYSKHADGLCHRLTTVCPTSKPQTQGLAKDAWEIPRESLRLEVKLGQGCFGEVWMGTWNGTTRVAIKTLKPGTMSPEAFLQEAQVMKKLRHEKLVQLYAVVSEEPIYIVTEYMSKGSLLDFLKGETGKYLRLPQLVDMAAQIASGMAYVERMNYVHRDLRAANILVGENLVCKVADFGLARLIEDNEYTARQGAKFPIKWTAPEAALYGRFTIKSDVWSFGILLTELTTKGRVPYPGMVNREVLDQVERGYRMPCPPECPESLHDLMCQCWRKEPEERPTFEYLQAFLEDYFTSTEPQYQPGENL
Chain of Bromodomain-containing protein 2 (P25440 whole entry, the tested form may be a part, canonical isoform): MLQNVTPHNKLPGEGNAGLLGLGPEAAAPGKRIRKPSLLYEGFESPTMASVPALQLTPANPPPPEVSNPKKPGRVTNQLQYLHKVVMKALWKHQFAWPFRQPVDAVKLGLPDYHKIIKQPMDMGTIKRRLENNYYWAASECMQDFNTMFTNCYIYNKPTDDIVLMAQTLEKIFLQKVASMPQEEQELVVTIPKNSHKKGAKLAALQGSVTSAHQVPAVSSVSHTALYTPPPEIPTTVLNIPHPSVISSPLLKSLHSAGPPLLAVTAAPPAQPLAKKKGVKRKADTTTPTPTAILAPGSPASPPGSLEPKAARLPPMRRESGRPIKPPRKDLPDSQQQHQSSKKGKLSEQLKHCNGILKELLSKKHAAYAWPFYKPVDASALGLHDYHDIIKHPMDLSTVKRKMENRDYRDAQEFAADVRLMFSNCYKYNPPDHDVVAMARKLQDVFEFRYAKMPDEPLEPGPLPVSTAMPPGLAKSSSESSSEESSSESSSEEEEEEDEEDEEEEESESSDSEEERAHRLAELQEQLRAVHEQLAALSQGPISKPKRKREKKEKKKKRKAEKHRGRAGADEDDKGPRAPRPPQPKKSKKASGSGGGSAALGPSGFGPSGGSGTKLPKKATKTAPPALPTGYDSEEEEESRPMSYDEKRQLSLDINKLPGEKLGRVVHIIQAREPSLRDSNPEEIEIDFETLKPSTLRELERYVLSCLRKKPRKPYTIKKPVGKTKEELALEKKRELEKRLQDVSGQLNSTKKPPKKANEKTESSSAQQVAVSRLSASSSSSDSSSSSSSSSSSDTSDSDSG
Chain of Sodium-dependent serotonin transporter (Homo sapiens) (P31645 whole entry, looked up): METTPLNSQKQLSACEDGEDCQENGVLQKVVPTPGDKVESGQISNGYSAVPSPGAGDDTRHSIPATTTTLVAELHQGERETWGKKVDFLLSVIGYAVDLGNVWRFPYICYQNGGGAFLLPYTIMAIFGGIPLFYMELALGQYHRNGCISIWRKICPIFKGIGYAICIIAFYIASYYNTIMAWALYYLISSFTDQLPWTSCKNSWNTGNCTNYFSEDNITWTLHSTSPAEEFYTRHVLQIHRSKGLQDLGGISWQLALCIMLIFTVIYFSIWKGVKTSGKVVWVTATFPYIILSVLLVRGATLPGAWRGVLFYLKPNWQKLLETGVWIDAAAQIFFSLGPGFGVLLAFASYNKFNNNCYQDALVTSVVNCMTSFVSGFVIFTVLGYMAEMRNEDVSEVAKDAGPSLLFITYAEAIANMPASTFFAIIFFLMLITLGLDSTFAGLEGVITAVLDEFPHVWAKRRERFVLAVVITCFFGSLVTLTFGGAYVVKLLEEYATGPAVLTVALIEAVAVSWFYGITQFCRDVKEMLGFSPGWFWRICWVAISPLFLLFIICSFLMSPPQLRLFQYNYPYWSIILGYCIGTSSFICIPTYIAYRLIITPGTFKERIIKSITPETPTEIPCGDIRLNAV

SMILES	IC50 (A-375) [µM]	IC50 [1] [µM]	IC50 (HT) [µM]	Activity [2] [%]	IC50 (EB-3) [µM]	IC50 [3] [µM]	IC50 (WiDr) [µM]	Activity [4] [%]	inhibition [5] [%]	Activity [6] [%]	IC50 (CAL-12T) [µM]	Activity [7] [%]	IC50 [8] [µM]	IC50 [9] [µM]	inhibition [10] [%]	IC50 (COLO 320DM) [µM]	IC50 (NCI-H23) [µM]	IC50 (HCC70) [µM]	IC50 (MDA-MB-436) [µM]	Kd [11] [µM]	further results
C/C=C/Cn1cc(-c2ccc(C(=O)N3CCOCC3)cc2)c2cc[nH]c2c1=O	20	20	20	10	20	20	20	22	11.5	6	20	5	20	20	0.9	20	20	20	20	4.3	Activity (Homo sapiens): 4%; Activity [12]: 3%; IC50 (Calu-3): 20 µM; IC50 (Caco-2): 20 µM; IC50 (SW948): 20 µM; IC50 (SCC-3): 20 µM
C/C=C/Cn1cc(-c2ccc(C(C)(C)O)cc2OC)c2cc[nH]c2c1=O	20	20	20	12	20	20	20	-2	6	0	20	10	20	20	4.5	20	20	20	20	3.3	Activity (Homo sapiens): 15%; Activity [12]: 3%; IC50 (Calu-3): 20 µM; IC50 (Caco-2): 20 µM; IC50 (SW948): 20 µM; IC50 (SCC-3): 20 µM
C/C=C/Cn1cc(-c2cc(OC)c(C(=O)N3CCOCC3)cc2OC)c2cc(C)[nH]c2c1=O	2	2	2	16	2	2	2	6	5.5	4	2	9	2	2	3.5	2	2	2	2	> 10	Activity (Homo sapiens): 14%; Activity [12]: 4%; IC50 (Calu-3): 2 µM; IC50 (Caco-2): 2 µM; IC50 (SW948): 2 µM; IC50 (SCC-3): 2 µM
C/C=C/Cn1cc(-c2cc(OC)c(C(C)(C)O)cc2OC)c2cc(C)[nH]c2c1=O																				> 10	
